In brackets after ≈: the same amount, converted by molar mass.
Columns and labels:
[1] = tested on: Huh7 cells; test: Neutral red uptake assay (cytotoxicity); assay type: cell-based, human
Text: The neutral red uptake assay is a cytotoxicity test that is based on the ability of viable cells to incorporate and bind the supra-vital dye neutral red in the lysosomes. This weakly cationic dye penetrates cell membranes by non-ionic passive diffusion and concentrates in the lysosomes, where it binds by electrostatic hydrophobic bonds to anionic and phosphate groups of the lysosomal matrix. The dye is then extracted from the viable cells using an acidified ethanol solution, and the absorbance of the solubilized dye is read. When the cell dies or the pH gradient is reduced, the dye is not retained and consequently, the amount of retained dye is proportional to the number of viable cells. Most primary cells and cell lines can be used for this method. The HepG2 and Huh7, two human hepatoma cell lines, were used for this study. The cells were seeded in 96-well tissue culture plates and treated for 48 hours with the compounds. The plates were then incubated for 2 hours with a medium containing neutral red. The cells were subsequently washed, the dye was extracted in each well, and the absorbance was read using a spectrophotometer (FIG. 3 and Table 11).

[2] = tested on: Saccharomyces cerevisiae (YPH501); test: Anti-fungal/anti-yeast activity: MIC50 (broth microdilution) and MFC; assay type: cell-based
[3] = tested on: Huh7 or HepG2 cell line; test: MTT assay (cytotoxicity); assay type: cell-based, human; conditions: 24 hours and 48 hours
Protocol: The MTT assay is a colorimetric assay that measures the reduction of yellow 3-(4,5-dimethylhiazol-2-yl)-2,5-diphenyl tetrazolium bromide (MTT) by mitochondrial succinate dehydrogenase. The MTT enters the cells and passes into the mitochondria where it is reduced to an insoluble, dark purple, formazan product. The cells are then solubilized with an organic solvent (e.g., isopropanol) and the released, solubilized formazan reagent is measured spectrophotometrically. Since reduction of MTT can only occur in metabolically active cells, the level of activity is a measure of the viability of the cells.
Cells of the Huh7 or HepG2 cell line were seeded in a 96 well plate. The plate was incubated overnight at 37° C. in a humidified incubator, 5% CO2. The test compounds were added to the plate. Different concentrations of drug were tested in triplicate along with a negative control. The final volume was adjusted to 100 μl per well. The plate was incubated overnight at 37° C. in a humidified incubator, 5% CO2. After 24 hours and 48 hours, MTT reagent (5 mg/ml, 10 μl/100 μl per well of the 96 well plate) was added and incubated at 37° C. for 3 hours. After 3 hours, 100 μl of the DMSO solution was added to each well and the plate was rocked at room temperature for 1 hour. The plate was then read on a plate reader at […].

[4] = tested on: Candida glabrata; test: Anti-fungal/anti-yeast activity: MIC50 (broth microdilution) and MFC; assay type: cell-based
Protocol: (§1) Fluconazole, an ergosterol inhibitor, and the beta-1,3-glucan inhibitor micafungin served as controls (See Tables 1-8).
(§2) The minimum inhibitory concentrations resulting in 50% growth inhibition (MIC50) of […] Candida species (C. albicans, C. tropicalis and C. glabrata, C. lusitaniae, C. parapsilosis, and C. apicola) as well as Aspergillus fumigatus to a set of novel synthetic compounds was determined in accordance with the guidelines in CLSI document M27-A2 (Clinical and Laboratory Standards Institute; Wayne, Pa.). The total volume of cells and drug was 100 μL per microtiter well, and each drug was diluted in RPMI to achieve final concentrations of 0.2-100 μg/ml. Uninoculated cultures were used as a reference standard. Stock inoculum suspensions were prepared from 24 hour cultures on YPD (yeast extract/peptone/dextrose) media at 30° C. For MIC determinations, an inoculum of 1.0×10^3 cells of Candidia and 2.0×10^3 cells of Aspergillus per well were used, and cells in diluted drugs were prepared in RPMI-1640 medium. MICs were determined both visually and spectrophotometrically at 24 hours and 48 h at 550 nm using a micro plate reader. The MIC50 endpoint was measured as the lowest drug concentration resulting in a reduction of growth of 50% or more compared with growth of the control.
(§3) The minimum fungicidal concentrations (MFCs) were determined for each drug-isolate-medium combination as follows. After 48 hours of incubation, 100 μL of each drug-isolate-medium combination (2 plates) was subcultured onto YPD plates (100 μL of solution was spread over the YPD plate). […] The plates were then incubated at 30° C. for 48 hours.
(§4) The in vitro fungicidal activities (MFCs) were determined for each drug-isolate-medium combination as follows. After 48 hours of incubation, 10 μL each drug-isolate-medium combination was spotted onto YPD plates (10 μL of each well is spotted sequentially with positive and negative control wells). […] The plates were then incubated at 30° C. for 48 hours.

[5] = tested on: Candida tropicalis; test: as above; assay type: cell-based
Protocol: as §1, §2, §3, §4

[6] = tested on: Candida apicola; test: as above; assay type: cell-based
Protocol: as §1, §2, §3, §4

[7] = tested on: Candida albicans (CAF-2); test: as above; assay type: cell-based
Protocol: as §1, §2, §3, §4

[8] = tested on: Candida lusitaniae; test: as above; assay type: cell-based
Protocol: as §1, §2, §3, §4

[9] = tested on: Candidia parapsilosis; test: as above; assay type: cell-based
Protocol: as §1, §2, §3, §4

[10] = Saccharomyces cerevisiae (YPH501)

## COc1ccc(CC(=O)NNC(=O)Cn2sc3ccccc3c2=O)cc1 [Compound I-6]
[1]; 3.3 μg/mL (approx 1X MIC)
  Percentage Viability: >100%
[1]; 10 μg/mL (approx 3X MIC)
  Percentage Viability: >100%
[1]; 33 μg/mL (approx 10X MIC)
  Percentage Viability: >100%
[1]; 100 μg/mL (approx 30X MIC)
  Percentage Viability: 67%
[2]; Saccharomyces cerevisiae
  MFC: 12.5 µg/mL (≈ 33.7 µM)
[2]; [10]
  Activity (fungicidal/fungistatic): fungicidal (An MFC/MIC ratio of less than four indicates that the compound is fungicidal)
  Ratio MFC/MIC: 1
[2]; Saccharomyces cerevisiae, read-out: MIC-50
  MIC: 12.5 µg/mL (≈ 33.7 µM)
[3]
  Toxicity to mammalian cell lines (MTT assay): minimally toxic
[4]; Candida glabrata
  Activity (fungicidal/fungistatic): fungicidal (An MFC/MIC ratio of less than four indicates that the compound is fungicidal)
  Ratio MFC/MIC: 1
[4]; Nakaseomyces glabratus
  MFC: 12.5 µg/mL
[4]; Nakaseomyces glabratus, read-out: MIC-50
  MIC: 12.5 µg/mL
[5]
  Activity (fungicidal/fungistatic): fungicidal (An MFC/MIC ratio of less than four indicates that the compound is fungicidal)
  MFC: 12.5 µg/mL
  Ratio MFC/MIC: 1
[5]; read-out: MIC-50
  MIC: 12.5 µg/mL
[6]; Candida apicola
  Activity (fungicidal/fungistatic): fungicidal (An MFC/MIC ratio of less than four indicates that the compound is fungicidal)
  MIC-50: 12.5 µg/mL
  Ratio MFC/MIC: 1
[6]; Starmerella apicola
  MFC: 12.5 µg/mL
[7]
  Activity (fungicidal/fungistatic): fungicidal (An MFC/MIC ratio of less than four indicates that the compound is fungicidal)
  MFC: 12.5 µg/mL
  Ratio MFC/MIC: 1
[7]; read-out: MIC-50
  MIC: 12.5 µg/mL
[8]; Candida lusitaniae
  Activity (fungicidal/fungistatic): fungicidal (An MFC/MIC ratio of less than four indicates that the compound is fungicidal)
  Ratio MFC/MIC: 1
[8]; Clavispora lusitaniae
  MFC: 12.5 µg/mL
[8]; Clavispora lusitaniae, read-out: MIC-50
  MIC: 12.5 µg/mL
[9]
  MFC: 12.5 µg/mL
[9]; Candidia parapsilosis
  Activity (fungicidal/fungistatic): fungicidal (An MFC/MIC ratio of less than four indicates that the compound is fungicidal)
  Ratio MFC/MIC: 1
[9]; read-out: MIC-50
  MIC: 12.5 µg/mL

— patent US9040715B2 (priority 2008, dated 2015)
